Assay [1] is described as follows: Inhibition of recombinant Plasmodium falciparum FLN expressed in Escherichia coli BL21 using Dabcyl-HKRHSFRMRG-EDANS as substrate incubated for 10 mins by fluorecence assay.
Assay [2] relates to Plasmodium falciparum. Kind of assay: Antiplasmodial activity against Plasmodium falciparum 3D7 infected in human red blood cells assessed as reduction in parasitemia measured after 70 to 80 hrs by SYBR Green dye based assay. The assay is classed as functional, organism-based, RBC. To be noted: 3D7, Erythrocyte.

SMILES strings stand for the structures. Some results are limits rather than exact numbers.

By IC50 is commonly meant the point on the concentration scale where inhibition reaches its midpoint. Usually EC50 stands for the concentration needed to bring the measured effect to its halfway point.

Regarding `Cc1cccc(-c2nc3c4ccccc4nc(NCCc4ccccc4)n3n2)c1`, the IC50 in assay [1] was more than 25 µM. Also, in assay [2], the EC50 worked out at 5.3 µM.
The like results for `O=C1/C(=c2/c3ccccc3n3c(=O)c4ccccc4nc23)Nc2ccccc21` were, in that order, more than 25 µM and 5.1 µM.
Consider `O=C(Nc1nc2ccccc2[nH]1)c1cc(-c2ccccn2)nc2ccccc12`, for which the IC50 in assay [1] was more than 25 µM. Besides, the EC50 in assay [2] came out at 14.9 µM.
The matching figures for `Cc1cccc(NC(=O)Cn2c(C)cc(=O)n3nc(-c4cccc(C)c4)nc23)c1`: more than 25 µM and more than 25 µM.
The matching figures for `O=C1c2ccc3c(c2CC12Cc1ccc4c(c1C2=O)CCCC4)CCCC3` (stereo not given): more than 25 µM and more than 25 µM.
The like results for `C[C@H]1CCc2[nH]c3ccc(C(=O)NC[C@H]4COc5ccccc5O4)cc3c2C1` were, in that order, more than 25 µM and 9.1 µM.
`Cc1nn(-c2cccc(C(=O)N3CCN(C)C(=O)C3)c2)c(=O)c2ccccc12`: the IC50 in assay [1] was more than 25 µM. Further, the EC50 in assay [2] is more than 25 µM.
`O=C(c1ccc2c3c(cccc13)CC2)[C@H]1CCCN(Cc2cc(=O)[nH]c(=O)[nH]2)C1`: the IC50 in assay [1] is more than 25 µM. Besides, in assay [2], the EC50 was more than 25 µM.
As to `Cc1cc2cc(CCNC(=O)c3ccc4ccccc4c3)c(=O)[nH]c2cc1C`, in assay [1], the IC50 is more than 25 µM. Moreover, in assay [2], the EC50 came out at 5.5 µM.
The matching figures for `O=c1cc(CN2CCc3n[nH]c(-c4cccc5ccccc45)c3C2)[nH]c(=O)[nH]1`: more than 25 µM and more than 25 µM.
The matching figures for `O=C(NN1C(=O)c2cccc3cccc(c23)C1=O)NN1C(=O)c2cccc3cccc(c23)C1=O`: more than 25 µM and more than 25 µM.
As to `Cc1ccc(-c2nc3cccnc3n2CCNC(=O)Nc2ccccc2F)cc1`, the IC50 in assay [1] is more than 25 µM. Also, in assay [2], the EC50 is more than 25 µM.
For `O=C(c1cc(-c2cccc3cccnc23)cc(-n2cnnn2)c1)N1CCCCC1`, in assay [1], the IC50 was more than 25 µM. Besides, the EC50 in assay [2] was more than 25 µM.
Regarding `C[C@@H](c1cc(=O)[nH]c(N[C@H]2CCc3ccccc32)n1)n1ncc2ccccc2c1=O`, in assay [1], the IC50 was more than 25 µM. The EC50 in assay [2] was more than 25 µM.
With `Cc1ccc(N2C[C@@H](c3nc(-c4ccc5oc(C)nc5c4)no3)CC2=O)cc1`, the IC50 in assay [1] was more than 25 µM. Moreover, in assay [2], the EC50 is more than 25 µM.
As for `O=C(Cn1cc(-c2nnc(-c3ccccc3)o2)c2ccccc21)Nc1ccccc1`, the IC50 in assay [1] came to 12 µM. In addition, the EC50 in assay [2] was more than 25 µM.
On to `CC(=O)n1cc([C@H]2CC(=O)OC3=C2C(=O)c2ccccc23)c2ccccc21`, for which the concentration for half-maximal inhibition (IC50) in assay [1] is 11 µM. Further, the concentration giving a half-maximal response (EC50) in assay [2] is more than 25 µM.
For `O=C(Nc1ccc(Cl)cc1)Nc1nnc2nc(CC(=O)c3ccc4ccccc4c3)c(=O)[nH]n12`, the IC50 in assay [1] came out at 19 µM. Besides, in assay [2], the EC50 amounted to 12 µM.
The like results for `O=C1NC(=O)C(c2ccccc2)(c2ccccc2)[C@@H]2C[C@@H]3c4[nH]c5ccccc5c4CCN3C[C@H]12` were, in that order, 12 µM and 1.7 µM.
The like results for `O=c1/c(=C/c2ccc(/C=c3\sc4nc5ccccc5n4c3=O)cc2)sc2nc3ccccc3n12` were, in that order, more than 25 µM and more than 25 µM.
Consider `CN1CCC2(CC1)Oc1ccccc1[C@H]1CC(c3cccc4ccccc34)=NN12`, for which the 50% inhibitory concentration (IC50) in assay [1] is more than 25 µM. In assay [2], the EC50 is 3.8 µM.
The like results for `O=C1Oc2ccccc2C(=O)Oc2ccccc2C(=O)Oc2ccccc2C(=O)Oc2ccccc21` were, in that order, more than 25 µM and more than 25 µM.
The like results for `Cn1nc(C(=O)NCc2ccccc2)c2c1CCN(Cc1cc3ccccc3[nH]1)C2` were, in that order, more than 25 µM and 3.8 µM.
In the case of `Cc1nc2ccccc2c(=O)n1Cc1noc(-c2cc3ccccc3oc2=O)n1`, in assay [1], the IC50 is more than 25 µM. Besides, the EC50 in assay [2] was more than 25 µM.
On to `Nc1c(C(=O)Nc2ccc3c(c2)C(=O)c2ccccc2C3=O)ccc2c1C(=O)c1ccccc1C2=O`, for which, in assay [1], the IC50 amounted to 1.76 µM. Also, the EC50 in assay [2] was more than 25 µM.
The matching figures for `C[C@@H]1Cc2cc(-c3cc(CC(=O)N=c4[nH]c5ccccc5[nH]4)no3)ccc2O1`: more than 25 µM and more than 25 µM.
The matching figures for `Cc1ccc(-c2noc(CSc3nc(O)cc(-c4ccccc4)n3)n2)cc1C`: more than 25 µM and more than 25 µM.
The like results for `CC1=C(C(=O)Nc2ccccc2C)[C@H](c2ccc3c(c2)OCO3)n2ncnc2N1` were, in that order, more than 25 µM and more than 25 µM.
For the molecule `Cc1c(C(=O)NCCc2nc3ccccc3[nH]2)oc2c1ccc1ccccc12`, the IC50 in assay [1] is more than 25 µM. Further, in assay [2], the EC50 was found to be 3 µM.
The like results for `c1cnc2c(c1)CN(c1nc(-c3c[nH]c4ccccc34)nc3c1CNC3)CC2` were, in that order, 21 µM and 4.4 µM.

The values above are taken from ChEMBL document CHEMBL5030551, “Identification of Plasmodium falciparum falcilysin inhibitors by a virtual screen” (Bioorg Med Chem Lett, 2021).
